How the values were obtained:
[1] = system: PD1-ss+10aa/Gaussia Luciferase; experiment: Dox-Induced PD1-ss-Gluc Assay; assay type: cell-based; details: 24 hr Dox induction; 293FRT/TO cells; read-out: 24 hr Dox Inducible PD1ssGluc 293FRT/TO: Mean IC50
Summary of the method: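 Flp-In 293 T-REx, stable line; Tet-regulated PD1-ss+10aa fused to Gaussia luciferase; plated day prior; cpd + doxycycline in DMSO/media; 37 °C, 5% CO2.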

[2] = system: TNFα-FL/Gaussia Luciferase; experiment: Dox Induced TNFα-FL-Gluc Assay; assay type: cell-based; details: for IC50: 24 hr Dox induction, 293FRT/TO cells, read-out: 24 hr Dox Inducible TNFaFLGluc 293FRT/TO: Mean IC50; for 24 hr Dox Inducible TNFaFLGluc 293FRT/TO: TNF/PD1: ratio of TNFaFLGluc IC50 to PD1ssGluc IC50
Summary of the method: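 Compound was added with doxycycline to cells plated a day earlier, incubating at 37° C under 5% CO2. The reporter line is 293 T-REx expressing a TNFα (1-233)–Gaussia luciferase fusion under tetracycline-regulated control.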

[3] = system: HER3-ss+4aa/Gaussia Luciferase; experiment: Dox-Induced Her3-ss-Gluc Assay; assay type: cell-based; details: 24 hr Dox induction; 293FRT/TO cells; read-out: 24 hr Dox Inducible Her3(ss + 4)Gluc 293FRT/TO: Mean IC50
Summary of the method: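 Compounds were diluted in DMSO/media containing doxycycline. They were added to Flp-In 293 T-REx cells plated the previous day, then incubated at 37 °C under 5% CO2. These cells stably express, under T-REx control, Gaussia luciferase fused to the HER3 signal sequence plus 4 amino acids.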

[4] = system: IL-2-FL/Gaussia Luciferase; experiment: Dox Induced IL2-FL-Gluc Assay; assay type: cell-based; details: for IC50: 24 hr Dox induction, 293FRT/TO cells, read-out: 24 hr Dox Inducible IL2FLGluc 293FRT/TO: Mean IC50; for 24 hr Dox Inducible IL2FLGluc 293FRT/TO: IL2/PD1: ratio of IL2FLGluc IC50 to PD1ssGluc IC50
Summary of the method: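 Compounds in DMSO/medium with doxycycline were applied to a 293 T-REx stable line expressing an IL-2 (aa 1-153)–Gaussia luciferase fusion under tetracycline-regulated control, cells seeded one day earlier; incubation at 37 °C, 5% CO2. Structures drawn without stereochemistry were tested as stereoisomer mixtures.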

[5] = system: multiple myeloma cell line NCI-H929; experiment: H929 Cell Viability Assay; assay type: cell-based, human; details: Homo sapiens, NCI-H929, 48 h, NCI-H929 cells, Celltiter-Glo
Summary of the method: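 Luminescent CellTiter-Glo read-out of viability after a 48 h exposure (37° C, 5% CO2) of NCI-H929 myeloma cells to compound dilutions in RPMI 1640 plus 10% FBS. Data for structures drawn without stereochemistry refer to stereoisomer mixtures.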

[6] = system: multiple myeloma cell line U266B1; experiment: U266 Cell Viability Assay; assay type: cell-based, human; details: Homo sapiens, U-266, 48 h, U266B1 cells, Celltiter-Glo
Summary of the method: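 CellTiter-Glo luminescence was read after a 48 h compound exposure (37 °C, 5% CO2) of human U266B1 myeloma cells grown in 10% FBS-supplemented RPMI 1640. Data for structures shown without defined stereochemistry refer to stereoisomer mixtures.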

[7] = Liver Microsome Stability Assay (rat); details: rat liver microsomes, with NADPH, 1.0 uM compound
Protocol: (§1) Stability of a compound was assessed in the presence of liver microsomes from various sources—mouse, rat, monkey and human liver microsomes. 1.0 uM compound, 0.4% DMSO in 0.1 M Potassium Phosphate with 1.0 mg/mL liver microsomes, were incubated at 37° C. with or without 1 mM NADPH. The samples were quenched at 0, and 30 minutes.

[8] = Liver Microsome Stability Assay (mouse); details: mouse liver microsomes, with NADPH, 1.0 uM compound
Protocol: as §1

[9] = Liver Microsome Stability Assay (human); details: human liver microsomes, with NADPH, 1.0 uM compound
Protocol: as §1

[10] = Liver Microsome Stability Assay (monkey); details: monkey liver microsomes, with NADPH, 1.0 uM compound
Protocol: as §1

Row | SMILES | IC50 [1] | IC50 [2] | 24 hr Dox Inducible TNFaFLGluc 293FRT/TO: TNF/PD1 [2] | IC50 [3] | IC50 [4] | 24 hr Dox Inducible IL2FLGluc 293FRT/TO: IL2/PD1 [4] | EC50 [5] | EC50 [6] | Liver Microsome Stability (Multiple Species): Rat - % Remaining after 30 min w/NADPH [7] | Liver Microsome Stability (Multiple Species): Mouse - % Remaining after 30 min w/NADPH [8] | Liver Microsome Stability (Multiple Species): Human - % Remaining after 30 min w/NADPH [9] | Liver Microsome Stability (Multiple Species): Monkey - % Remaining after 30 min w/NADPH [10]
1 | CC(C)n1cnc(/C=C/Cc2csc(NC(=O)c3cccn3Cc3ccnc(F)c3)n2)c1 [Compound B106, (E)-1-((2-fluoropyridin-4-yl)methyl)-N-(4-(3-(1-isopropyl-1H-imidazol-4-yl)allyl)thiazol-2-yl)-1H-pyrrole-2-carboxamide] | 0.692 µM | > 25 µM | >36.1 | 1.28 µM | 3.01 µM | 4.3 | > 25 µM | > 25 µM | 5.01% | 0.95% | 0.59% | 0.06%
2 | CC(C#N)n1cnc(/C=C/c2csc(NC(=O)c3cccn3Cc3ccnc(F)c3)n2)c1 (stereo not drawn) [Compound B107, (E)-N-(4-(2-(1-(1-cyanoethyl)-1H-imidazol-4-yl)vinyl)thiazol-2-yl)-1-((2-fluoropyridin-4-yl)methyl)-1H-pyrrole-2-carboxamide] | 0.476 µM | > 25 µM | >52.5 | > 25 µM | > 25 µM | >52 | > 25 µM | > 25 µM | 18.8% | 35.4% | 0.55% | 0.33%
3 | N#CCCn1cnc(/C=C/c2csc(NC(=O)c3cccn3Cc3ccnc(F)c3)n2)c1 [Compound B108, (E)-N-(4-(2-(1-(2-cyanoethyl)-1H-imidazol-4-yl)vinyl)thiazol-2-yl)-1-((2-fluoropyridin-4-yl)methyl)-1H-pyrrole-2-carboxamide] | 6.04 µM | > 25 µM | >4.14 | > 25 µM | > 25 µM | >4.1 | > 25 µM | > 25 µM | 23.9% | 55.7% | 0.43% | 0.69%
4 | NC(=O)CCn1cnc(/C=C/c2csc(NC(=O)c3cccn3Cc3ccnc(F)c3)n2)c1 [Compound B109, (E)-N-(4-(2-(1-(3-amino-3-oxopropyl)-1H-imidazol-4-yl)vinyl)thiazol-2-yl)-1-((2-fluoropyridin-4-yl)methyl)-1H-pyrrole-2-carboxamide] | > 25 µM | > 25 µM | <=>1.00 | > 25 µM | > 25 µM | <=>1.0 | > 25 µM | > 25 µM | 60.4% | 60.2% | 10.2% | 5.04%
5 | CC(CC#N)n1cnc(/C=C/c2csc(NC(=O)c3cccn3Cc3ccnc(F)c3)n2)c1 (stereo not drawn) [Compound B110, (E)-N-(4-(2-(1-(1-cyanopropan-2-yl)-1H-imidazol-4-yl)vinyl)thiazol-2-yl)-1-((2-fluoropyridin-4-yl)methyl)-1H-pyrrole-2-carboxamide] | 2.21 µM | > 25 µM | >11.3 | > 25 µM | > 25 µM | >11 | > 25 µM | > 25 µM | 32.4% | 44.9% | 0.38% | 0.51%

From patent US20230286973A1, “PROTEIN SECRETION INHIBITORS” (KEZAR LIFE SCIENCES, priority 2020, published 2023)
